Earlier results in US10022309B2, “Composition, comprising hydrofluoric acid, for inhibiting dental erosion” ([…], priority 2004, dated 2018).

How the values were obtained:
[1] = pre-treatment with 1% neutral NaF or 4% TiF4; 50 mM citric acid with calcium and phosphate, pH 3, 30 min; without treatment 4.5 um
[2] = 24 h treatment (1.2% NaF or Duraphat varnish); then cola-drink pH 2.6 for 4 min
[3] = aqueous solution

| Compound | mean lesion depth [1] | hardness of enamel compared with untreated control [2] | pKa [3] |
| --- | --- | --- | --- |
| [F-].[Na+] [NaF, sodium fluoride] | 3.5 um | improved |  |
| [F][Ti]([F])([F])[F] [TiF4, titanium tetrafluoride] | 2.7 um |  |  |
| F [hydrofluoric acid] |  |  | 3.45 |
